Experimental data published in the supplement of paper PMC10307832.

Columns and labels:
Assay in all cases: relative viability (nuclei count vs DMSO), 5 days (fraction); higher = more cells survive
Linsitinib + Luminespib = compound: C[C@]1(O)C[C@@H](c2nc(-c3ccc4ccc(-c5ccccc5)nc4c3)c3c(N)nccn32)C1 [Linsitinib] + CCNC(=O)c1noc(-c2cc(C(C)C)c(O)cc2O)c1-c1ccc(CN2CCOCC2)cc1 [Luminespib] (partner 0.01 µM)
Outline: (§1)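 For relative viability, nuclei counts in treated wells were divided by those in vehicle wells. Lung cancer cell lines had been pin-tool dosed in 1536-well plates the day after seeding and cultured for 5 days, then fixed and stained in one step (final 0.05% Triton X-100, 1% formaldehyde, 1 ug/ml Hoechst) and imaged at 4×. Doses were one drug alone or a fixed anchor-drug dose plus five library-drug doses (not always all listed) in √10 steps, and values are duplicate-plate medians.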

Ispinesib + Foretinib = compound: Cc1ccc(C(=O)N(CCCN)[C@@H](c2nc3cc(Cl)ccc3c(=O)n2Cc2ccccc2)C(C)C)cc1 [Ispinesib] + COc1cc2c(Oc3ccc(NC(=O)C4(C(=O)Nc5ccc(F)cc5)CC4)cc3F)ccnc2cc1OCCCN1CCOCC1 [Foretinib] (partner 0.25 µM)
Outline: as §1

Ispinesib + Phenformin = compound: Cc1ccc(C(=O)N(CCCN)[C@@H](c2nc3cc(Cl)ccc3c(=O)n2Cc2ccccc2)C(C)C)cc1 [Ispinesib] + N=C(N)NC(=N)NCCc1ccccc1 [Phenformin] (partner 250 µM)
Outline: as §1

Ispinesib + Vorinostat = compound: Cc1ccc(C(=O)N(CCCN)[C@@H](c2nc3cc(Cl)ccc3c(=O)n2Cc2ccccc2)C(C)C)cc1 [Ispinesib] + O=C(CCCCCCC(=O)Nc1ccccc1)NO [Vorinostat] (partner 1 µM)
Outline: as §1

Cell Line | relative viability (Linsitinib + Luminespib; first compound 0.01 µM) | relative viability (Linsitinib + Luminespib; first compound 0.1 µM) | relative viability (Linsitinib + Luminespib; first compound 0.3162 µM) | relative viability (Linsitinib + Luminespib; first compound 1 µM) | relative viability (Ispinesib + Foretinib; first compound 0.001 µM) | relative viability (Ispinesib + Foretinib; first compound 0.003162 µM) | relative viability (Ispinesib + Foretinib; first compound 0.01 µM) | relative viability (Ispinesib + Foretinib; first compound 0.03162 µM) | relative viability (Ispinesib + Foretinib; first compound 0.1 µM) | relative viability (Ispinesib + Phenformin; first compound 0.001 µM) | relative viability (Ispinesib + Phenformin; first compound 0.003162 µM) | relative viability (Ispinesib + Phenformin; first compound 0.01 µM) | relative viability (Ispinesib + Phenformin; first compound 0.03162 µM) | relative viability (Ispinesib + Phenformin; first compound 0.1 µM) | relative viability (Ispinesib + Vorinostat; first compound 0.001 µM) | relative viability (Ispinesib + Vorinostat; first compound 0.003162 µM) | relative viability (Ispinesib + Vorinostat; first compound 0.01 µM) | relative viability (Ispinesib + Vorinostat; first compound 0.03162 µM) | relative viability (Ispinesib + Vorinostat; first compound 0.1 µM) | relative viability (Linsitinib + Luminespib; first compound 0.03162 µM)
SK-LU-1 | 0.212 | 0.203 | 0.208 | 0.215 | 1.01 | 0.806 | 0.942 | 0.821 | 0.286 | 0.555 | 0.627 | 0.561 | 0.251 | 0.203 | 0.709 | 0.763 | 0.911 | 0.615 | 0.506 | –
H3255 | 0.87 | 0.869 | 0.594 | 0.917 | 0.932 | 0.869 | 0.995 | 0.508 | 0.158 | 0.347 | 0.37 | 0.333 | 0.259 | 0.259 | 0.79 | 1.09 | 0.804 | 0.479 | 0.413 | 1
LOU-NH91 | 0.357 | 0.299 | 0.244 | 0.298 | 0.917 | 0.879 | 0.957 | 0.829 | 0.472 | 0.708 | 0.753 | 0.774 | 0.563 | 0.262 | 0.91 | 1.04 | 0.939 | 0.247 | 0.236 | 0.355
NCI-H1666 | 0.95 | 1.12 | 1.07 | 1.02 | 1.03 | 0.989 | 0.903 | 0.918 | 0.539 | 0.524 | 0.6 | 0.541 | 0.475 | 0.343 | 1.11 | 1.05 | 1.08 | 1.07 | 0.84 | 1.08
SK-MES-1 | 0.845 | 0.953 | 0.652 | 0.762 | 1.01 | 1.02 | 0.993 | 0.928 | 0.256 | 0.753 | 0.714 | 0.761 | 0.193 | 0.186 | 1.31 | 1.19 | 1.08 | 0.233 | 0.221 | 0.854
NCI-H2023 | 0.599 | 0.879 | 0.646 | 0.501 | 0.966 | 0.755 | 0.807 | 0.457 | 0.168 | 0.484 | 0.479 | 0.384 | 0.187 | 0.154 | 0.646 | 0.563 | 0.43 | 0.237 | 0.162 | 0.627
COR-L 105 | 0.857 | 0.644 | 0.638 | 0.581 | 1.46 | 1.01 | 1.03 | 0.468 | 0.345 | 0.602 | 0.455 | 0.366 | 0.216 | 0.258 | 0.933 | 0.51 | 1.04 | 0.49 | 0.522 | 0.688
NCI-H838 | 0.411 | 0.278 | – | 0.235 | 1.07 | 1.14 | 1.16 | 1 | 0.555 | 0.649 | 0.605 | 0.827 | 0.194 | 0.163 | 0.738 | 0.726 | 0.739 | 0.625 | 0.238 | 0.211
SW 1573 | 0.22 | 0.238 | 0.129 | 0.238 | 0.978 | 0.893 | 0.907 | 1.1 | 0.32 | 0.373 | 0.369 | 0.426 | 0.145 | 0.141 | 0.6 | 0.678 | 0.646 | 0.197 | 0.148 | 0.359
